Results on two molecules are retold here after patent US20030124653A1, “Method of producing glycoproteins having reduced complex carbohydrates in mammalian cells” (NOVAZYME PHARMACEUTICALS, INC., priority 2001, published 2003).

In the test the test system is CHO cell line (GAA LEC clone R3.3) expressing rh-GAA. As to the kind of experiment: Phosphorylation efficiency of rh-GAA from cultures containing mannosidase inhibitors ([32P] incorporation by GlcNAc phosphotransferase). The test is classed as cell-based, Chinese Hamster. Particulars: for [^32P] Phosphate Incorporation (cpm): conditioned media with 6 μg GAA; for effect on the phosphorylation reaction of rh-GAA: increasing amounts of inhibitor alone, versus GAA cultured without mannosidase inhibitors (FIG. 1). The procedure:
To determine whether mannosidase inhibitors can increase phosphorylation efficiency of recombinant human acid alpha glucosidase (rh-GAA), a CHO cell line (GAA LEC clone R3.3) expressing rh-GAA was grown in various conditions that contained different amounts of the following mannosidase the inhibitors: Kifunensin; Deoxymannojirimycin (DMJ); or combinations of both inhibitors. Conditioned media from each inhibitor condition containing 6 μg of GAA (based on GAA activity assay) was then incubated with purified bovine GlcNAc phosphotransferase (Pt'ase) and [^32P]UDP-GlcNAc. Subsequently, each phosphorylation reaction was loaded onto a concanavalin A-sepharose column to capture glycoproteins, e.g., rh-GAA. The concanavalin A-sepharose was washed and the resin was counted in a liquid scintillation counter to measure the ^32P incorporation, i.e., the extent of phosphorylation on rh-GAA. The results are summarized in Table 1 below and FIGS. 1 and 2.

For `O=C1N[C@@H]2[C@@H](O)[C@@H](O)[C@H](O)[C@@H](CO)N2C1=O` [Kifunensin only, kifunensine], the “effect on the phosphorylation reaction of rh-GAA” value is on record as “greatly enhance”. The “[^32P] Phosphate Incorporation (cpm)” value (0.5 μg/ml inhibitor in culture) amounted to 6675 cpm. For the same molecule, the “[^32P] Phosphate Incorporation (cpm)” value (1.0 μg/ml inhibitor in culture) was 8585 cpm. Also, the “[^32P] Phosphate Incorporation (cpm)” value (2.5 μg/ml inhibitor in culture) is listed as 7147 cpm. Besides, the “[^32P] Phosphate Incorporation (cpm)” value (5.0 μg/ml inhibitor in culture) is 6717 cpm. For the same molecule, the “[^32P] Phosphate Incorporation (cpm)” value (10.0 μg/ml inhibitor in culture) worked out at 7116 cpm.

On to `OC[C@H]1NC[C@@H](O)[C@@H](O)[C@@H]1O` [DMJ only, deoxymannojirimycin], for which the “effect on the phosphorylation reaction of rh-GAA” value is listed as “greatly enhance”. Besides, where the note is “0.5 mM inhibitor in culture”, the “[^32P] Phosphate Incorporation (cpm)” value is 3656 cpm. Further, where the note is “1.0 mM inhibitor in culture”, the “[^32P] Phosphate Incorporation (cpm)” value was determined as 4500 cpm. Further, the “[^32P] Phosphate Incorporation (cpm)” value (1.75 mM inhibitor in culture) was found to be 4450 cpm. In addition, the “[^32P] Phosphate Incorporation (cpm)” value (2.5 mM inhibitor in culture) amounted to 7258 cpm. Further, where the note is “5.0 mM inhibitor in culture”, the “[^32P] Phosphate Incorporation (cpm)” value came out at 6413 cpm.
